Source: the NIST ThermoML archive (doi:10.1016/j.fluid.2010.08.022)

Settings: 101.33 kPa, Liquid crystal of unknown type; for speed of sound: Sing-around technique in a fixed-path interferometer; for mass density: Vibrating tube method

CCCCCCCC/C=C\CCCCCCCC(=O)[O-].OCC[NH2+]CCO [bis(2-hydroxyethyl)ammonium oleate]
Settings | mass density [kg/m3] | speed of sound [m/s]
310.91 K | 956.801 | 1479.3
311.16 K | 956.637 | 1478.5
311.41 K | 956.474 | 1477.7
311.66 K | 956.311 | 1476.9
311.91 K | 956.146 | 1476.1
312.16 K | 955.984 | 1475.3
312.41 K | 955.821 | 1474.5
312.66 K | 955.658 | 1473.7
312.91 K | 955.495 | 1472.9
313.16 K | 955.331 | 1472.1
313.4 K | 955.169 | 1471.3
313.66 K | 955.006 | 1470.5
313.91 K | 954.842 | 1469.7
314.16 K | 954.679 | 1468.9
314.41 K | 954.514 | 1468.2
314.66 K | 954.352 | 1467.4
314.91 K | 954.186 | 1466.6
315.16 K | 954.024 | 1465.8
315.41 K | 953.862 | 1465
315.65 K | 953.699 | 1464.2
315.91 K | 953.533 | 1463.4
316.16 K | 953.369 | 1462.7
316.41 K | 953.207 | 1461.9
316.66 K | 953.043 | 1461.1
316.91 K | 952.88 | 1460.3
317.16 K | 952.716 | 1459.5
317.41 K | 952.551 | 1458.8
317.66 K | 952.388 | 1458
317.91 K | 952.225 | 1457.2
318.16 K | 952.061 | 1456.4
318.41 K | 951.897 | 1455.6
318.66 K | 951.733 | 1454.9
318.91 K | 951.57 | 1454.1
319.16 K | 951.406 | 1453.3
319.41 K | 951.243 | 1452.5
319.66 K | 951.078 | 1451.7
319.91 K | 950.913 | 1451
320.16 K | 950.75 | 1450.2
320.41 K | 950.587 | 1449.4
320.66 K | 950.422 | 1448.6
320.91 K | 950.258 | 1447.8
321.16 K | 950.094 | 1447.1
321.41 K | 949.931 | 1446.3
321.66 K | 949.766 | 1445.5
321.91 K | 949.603 | 1444.7
322.16 K | 949.437 | 1444
322.41 K | 949.275 | 1443.2
322.65 K | 949.109 | 1442.4
322.91 K | 948.946 | 1441.6
323.16 K | 948.781 | 1440.8
323.41 K | 948.617 | 1440.1
323.66 K | 948.452 | 1439.3
323.91 K | 948.289 | 1438.5
324.16 K | 948.125 | 1437.8
324.41 K | 947.96 | 1437
324.66 K | 947.796 | 1436.2
324.9 K | 947.631 | 1435.4
325.16 K | 947.466 | 1434.7
325.41 K | 947.302 | 1433.9
325.66 K | 947.136 | 1433.2
325.91 K | 946.972 | 1432.4
326.16 K | 946.806 | 1431.6
326.41 K | 946.644 | 1430.8
326.66 K | 946.479 | 1430.1
326.91 K | 946.315 | 1429.3
327.16 K | – | 1428.5
